Patent publication US6133248A, “Polar drug of prodrug compositions with extended shelf-life storage and a method of making thereof” (priority 1998, dated 2000)
Like-named read-outs stand apart in the source and are kept apart here.

How the values were obtained:
[1] = literature value; cited from earlier work
[2] = for Kd: 0.02 m tris buffer
Protocol: After sonication and mixing by vortex mixer, the phenytoin-suspended solutions were placed in a shaking, temperature controlled water bath for at least 5 days at 25° C. After equilibration, checked by periodic sampling, the suspensions were filtered through a membrane filter (Acrodisc, PVDF 0.2 μm, Gelman). The filtrate was isolated and diluted with HPLC mobile phase and the concentration of phenytoin was determined by HPLC. This work was performed in duplicate.
This phenomena is illustrated in Scheme (2). The binding constant for the phenytoin/(SBE)7m-β-CD complex, K1 can be calculated by the slope and intercept of the data from FIG. 3 (absence of fosphenytoin) according to Eq 2 (Hiquchi, T and Connors K. A.) […]
K1 =Slope/Intercept(1-Slope) (2)
K2, the binding constant for the fosphenytoin/(SBE)7m-β-CD complex can be calculated according to Eq. 6 as follows; K1 =(St-So')/(St-(St-So'))(Lt-(St-so')-x)
K1 =Slope/So'(1-Slope-x/Lt) (3)
K2 =x/(St'-x)(Lt-(St-So')-x
=(x/Lt)/(St'-x)(1-Slope-x/Lt) (4) […]
x/Lt=1-Slope-Slope/K1 So' (5)
Eq. 4 and Eq. 5 lead to Eqs. 6 and 7, K2 =(1/(St'-x))K1 So'/Slope-So'K1 -1) (6)
≈(1/St')(K1 So'/Slope-So'K1 -1) (7) where various terms are defined in Scheme (2). The term, St'-x, in Eq. 6 represents the free fraction of fosphenytoin in the presence of CD and theoretically should change with increasing CD concentration.

[3] = Arrhenius plot for phenytoin production rate from fosphenytoin; type: physicochemical
Description: These values are higher than those reported previously; 30.8 kcal/mol and also are higher than Ea values reported from most other drug degradation studies (10-30 kcal/mol) (Yoshioka, S. Stability of Drugs and Dosage Forms, Nankodo Co. Ltd., Tokyo, 1995; pp.30-67). One possible explanation for the difference may be the effect of temperature on the pH of tris buffer solutions. […] Consequently, the change of phenytoin production rate can attribute not only to the direct effect of temperature on the kinetics but also the effect of temperature on pH. Since our principal goal was to study the effect of temperature on the stability of some protype formulations, buffer pH values were not adjusted at each temperature.

[4] = pH values >8.0; cited from earlier work
[5] = 25° C.
Description: Two different shelf-life criteria were considered; time to exceed phenytoin solubility in the presence and absence of (SBE)7m-β-CD and 0.5% phenytoin production.

[6] = high pH 8.5 formulation, refrigeration; cited from earlier work
[7] = AHFS Drug Information; cited from earlier work
[8] = cited from earlier work
[9] = Phenytoin solubility in absence and presence of fosphenytoin and (SBE)7m-β-CD; type: physicochemical; settings: 0.02 m tris buffer
Protocol: This work was performed in duplicate.
The fosphenytoin concentration of 80.6 mg/ml (75 mg/ml anhydrous fosphenytoin) was the same as the commercial product. […] The solubility of phenytoin is elevated in the presence of fosphenytoin probably through micellar or complex formation (Anderson et al. J. Pharm. Sci. 74 375-381; Muller et al. Int. J. Pharm. 75 201-209, 1991).

O=C1NC(c2ccccc2)(c2ccccc2)C(=O)N1COP(=O)(O)O [fosphenytoin]
Ea reported previously [1]: 30.8 kcal/mol
Kd ([2]; pH 7.4): 25.6 mM
Kd ([2]; pH 8): 29.4 mM
Ea (apparent activation energy), phenytoin production ([3]; pH 7.4): 38.9 kcal/mol
Ea (apparent activation energy), phenytoin production ([3]; pH 8.0): 39.5 kcal/mol
Kinetics of phenytoin production (0.02M tris, 60° C., pH 7.4 and 8.0): apparent zero-order kinetics
Influence of (SBE)7m-β-CD on phenytoin production rate (30 or 60 mM (SBE)7m-β-CD, fosphenytoin 80.6 mg/ml): did not appear to influence the phenytoin production rate although here was a very slight trend to greater stability with increasing (SBE)7m-β-CD concentration
Kinetics of phenytoin production (all temperatures, CD concentrations and both pH values): pseudo zero-order kinetics
Degradant peaks (phenytoin vs earlier eluting peak) (pH 7.4): phenytoin was the major degradant peak observed
Rate of Phenytoin Production (pH 7.4, 25° C., 0 mM CD): 0.160 µg/mL/day
Rate of Phenytoin Production (pH 7.4, 25° C., 60 mM CD): 0.133 µg/mL/day
Rate of Phenytoin Production (pH 7.4, 37° C., 60 mM CD): 0.993 µg/mL/day
Rate of Phenytoin Production (pH 7.4, 50° C., 60 mM CD): 21.37 µg/mL/day
Rate of Phenytoin Production (pH 7.4, 60° C., 0 mM CD): 111.8 µg/mL/day
Degradant peaks (phenytoin vs earlier eluting peak) (pH 8): this peak had an area comparable to that of phenytoin
Rate of Phenytoin Production (pH 8.0, 25° C., 0 mM CD): 0.083 µg/mL/day
Rate of Phenytoin Production (pH 8.0, 25° C., 30 mM CD): 0.088 µg/mL/day
Rate of Phenytoin Production (pH 8.0, 25° C., 60 mM CD): 0.075 µg/mL/day
Rate of Phenytoin Production (pH 8.0, 37° C., 0 mM CD): 0.634 µg/mL/day
Rate of Phenytoin Production (pH 8.0, 37° C., 30 mM CD): 0.600 µg/mL/day
Rate of Phenytoin Production (pH 8.0, 37° C., 60 mM CD): 0.562 µg/mL/day
Rate of Phenytoin Production (pH 8.0, 50° C., 30 mM CD): 14.43 µg/mL/day
Rate of Phenytoin Production (pH 8.0, 50° C., 60 mM CD): 13.82 µg/mL/day
Rate of Phenytoin Production (pH 8.0, 60° C., 0 mM CD): 67.20 µg/mL/day
Stability at higher pH [4]: more unstable
Time without phenytoin precipitation ([5]; 60 mM (SBE)7m-β-CD, either pH): over two years
Physically stable formulations, shelf-life ([5]; pH range 7.4-8.0): greater than two years
Time without phenytoin precipitation ([5]; pH 8.0, 60 mM (SBE)7m-β-CD): at least 17 years
Shelf-life by 0.5% phenytoin production criterion ([5]; with (SBE)7m-β-CD): greater than two year
Shelf-life of the prodrug product [6]: two years

O=C1NC(=O)C(c2ccccc2)(c2ccccc2)N1 [phenytoin]
pKa value [7]: 8.06-8.33
Solubility ([8]; pH values <8): 20 to 25 µg/mL
Intrinsic aqueous solubility ([8]; phenytoin, background): less than 25 μg/ml
Kd ([2]; pH 7.4): 0.932 mM
Kd ([2]; pH 8): 1.26 mM
Type of phase solubility diagram ([2]; 25° C., pH 7.4 and 8.0, presence or absence of 80.6 mg/ml fosphenytoin): AL-type
Solubility enhancement in presence of fosphenytoin vs absence ([2]; (SBE)7m-β-CD, 25° C.): lower than that in the absence of fosphenytoin
solubility at 120 h ([9]; pH 7.4, aqueous buffer, pH 7.4, 0 mM (SBE)7m-β-CD, 25° C., read-out: Phenytoin Conc. (Solubility Criteria)): 49.8 µg/mL
solubility at 120 h ([9]; pH 7.4, aqueous buffer, pH 7.4, 60 mM (SBE)7m-β-CD, 25° C., read-out: Phenytoin Conc. (Solubility Criteria)): 451 µg/mL
solubility at 120 h ([9]; pH 7.4, aqueous buffer, pH 7.4, 25° C., absence of fosphenytoin, read-out: Solubility of phenytoin): 18.1 µg/mL
solubility at 120 h ([9]; pH 7.4, aqueous buffer, pH 7.4, 25° C., presence of fosphenytoin 80.6 mg/ml, read-out: Solubility of phenytoin): 49.8 µg/mL
solubility at 120 h ([9]; pH 8, aqueous buffer, pH 8.0, 0 mM (SBE)7m-β-CD, 25° C., read-out: Phenytoin Conc. (Solubility Criteria)): 61.9 µg/mL
solubility at 120 h ([9]; pH 8, aqueous buffer, pH 8.0, 30 mM (SBE)7m-β-CD, 25° C., read-out: Phenytoin Conc. (Solubility Criteria)): 274 µg/mL
solubility at 120 h ([9]; pH 8, aqueous buffer, pH 8.0, 60 mM (SBE)7m-β-CD, 25° C., read-out: Phenytoin Conc. (Solubility Criteria)): 476 µg/mL
solubility at 120 h ([9]; pH 8, aqueous buffer, pH 8.0, 25° C., presence of fosphenytoin 80.6 mg/ml, read-out: Solubility of phenytoin): 61.9 µg/mL
solubility at 120 h ([9]; pH 8, aqueous buffer, pH 8.0, 25° C., printed 'in the absence of phenytoin', read-out: Solubility of phenytoin): 27.5 µg/mL
